Measured values taken from ChEMBL document CHEMBL1157610, “Bis(morpholino-1,3,5-triazine) derivatives: potent adenosine 5'-triphosphate competitive phosphatidylinositol-3-kinase/mammalian target of rapamycin inhibitors: discovery of compound 26 (PKI-587), a highly efficacious dual inhibitor” (J Med Chem, 2010).
Converted amounts (≈) assume the structure as drawn. The source made the active and inactive calls. No cut-off for these calls is given here.

Legend:
[1] = Solubility at pH 7.4; format: physicochemical; conditions: buffer
MDA-MB-361 [2] = test: cells; conditions: Homo sapiens
[3] = Membrane permeability at pH 7.4 by PAMPA assay; format: ADME; conditions: read-out: permeability
cells = conditions: Homo sapiens, PC3MM2
[4] = target: Serine/threonine-protein kinase mTOR (Homo sapiens, UniProt P42345)
[5] = target: Phosphatidylinositol 4,5-bisphosphate 3-kinase catalytic subunit gamma isoform (Homo sapiens, UniProt P48736)
Chain of Phosphatidylinositol 4,5-bisphosphate 3-kinase catalytic subunit gamma isoform (P48736 whole entry, canonical isoform): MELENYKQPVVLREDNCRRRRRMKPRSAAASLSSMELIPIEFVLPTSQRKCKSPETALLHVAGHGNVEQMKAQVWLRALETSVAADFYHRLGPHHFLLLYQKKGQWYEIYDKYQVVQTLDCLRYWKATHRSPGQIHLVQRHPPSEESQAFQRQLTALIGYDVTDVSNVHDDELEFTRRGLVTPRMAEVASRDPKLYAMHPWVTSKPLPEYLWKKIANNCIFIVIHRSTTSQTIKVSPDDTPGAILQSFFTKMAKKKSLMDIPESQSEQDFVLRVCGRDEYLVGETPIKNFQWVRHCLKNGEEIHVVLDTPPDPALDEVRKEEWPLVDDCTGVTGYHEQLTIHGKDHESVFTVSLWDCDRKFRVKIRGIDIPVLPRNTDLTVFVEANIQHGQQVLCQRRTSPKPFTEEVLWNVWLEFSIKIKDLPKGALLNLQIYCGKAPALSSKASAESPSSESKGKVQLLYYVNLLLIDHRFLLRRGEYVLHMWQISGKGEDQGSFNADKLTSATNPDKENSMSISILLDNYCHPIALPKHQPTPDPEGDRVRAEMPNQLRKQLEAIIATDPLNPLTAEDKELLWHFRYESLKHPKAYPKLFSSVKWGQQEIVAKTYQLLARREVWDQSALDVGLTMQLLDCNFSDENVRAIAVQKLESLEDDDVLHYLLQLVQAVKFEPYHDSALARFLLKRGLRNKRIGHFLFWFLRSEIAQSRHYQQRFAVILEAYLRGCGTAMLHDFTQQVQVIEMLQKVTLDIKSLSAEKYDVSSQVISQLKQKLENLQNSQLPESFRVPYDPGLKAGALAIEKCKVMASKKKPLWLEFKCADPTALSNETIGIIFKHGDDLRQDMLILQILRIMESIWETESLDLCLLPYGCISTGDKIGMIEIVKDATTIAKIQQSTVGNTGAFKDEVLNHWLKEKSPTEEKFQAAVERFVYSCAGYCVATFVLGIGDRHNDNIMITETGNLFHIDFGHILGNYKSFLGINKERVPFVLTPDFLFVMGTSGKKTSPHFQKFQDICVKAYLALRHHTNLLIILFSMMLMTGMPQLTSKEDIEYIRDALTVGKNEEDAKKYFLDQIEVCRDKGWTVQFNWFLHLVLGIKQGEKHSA

[6] = target: Phosphatidylinositol 4,5-bisphosphate 3-kinase catalytic subunit alpha isoform (Homo sapiens, UniProt P42336)
Chain of Phosphatidylinositol 4,5-bisphosphate 3-kinase catalytic subunit alpha isoform (P42336 whole entry, canonical isoform): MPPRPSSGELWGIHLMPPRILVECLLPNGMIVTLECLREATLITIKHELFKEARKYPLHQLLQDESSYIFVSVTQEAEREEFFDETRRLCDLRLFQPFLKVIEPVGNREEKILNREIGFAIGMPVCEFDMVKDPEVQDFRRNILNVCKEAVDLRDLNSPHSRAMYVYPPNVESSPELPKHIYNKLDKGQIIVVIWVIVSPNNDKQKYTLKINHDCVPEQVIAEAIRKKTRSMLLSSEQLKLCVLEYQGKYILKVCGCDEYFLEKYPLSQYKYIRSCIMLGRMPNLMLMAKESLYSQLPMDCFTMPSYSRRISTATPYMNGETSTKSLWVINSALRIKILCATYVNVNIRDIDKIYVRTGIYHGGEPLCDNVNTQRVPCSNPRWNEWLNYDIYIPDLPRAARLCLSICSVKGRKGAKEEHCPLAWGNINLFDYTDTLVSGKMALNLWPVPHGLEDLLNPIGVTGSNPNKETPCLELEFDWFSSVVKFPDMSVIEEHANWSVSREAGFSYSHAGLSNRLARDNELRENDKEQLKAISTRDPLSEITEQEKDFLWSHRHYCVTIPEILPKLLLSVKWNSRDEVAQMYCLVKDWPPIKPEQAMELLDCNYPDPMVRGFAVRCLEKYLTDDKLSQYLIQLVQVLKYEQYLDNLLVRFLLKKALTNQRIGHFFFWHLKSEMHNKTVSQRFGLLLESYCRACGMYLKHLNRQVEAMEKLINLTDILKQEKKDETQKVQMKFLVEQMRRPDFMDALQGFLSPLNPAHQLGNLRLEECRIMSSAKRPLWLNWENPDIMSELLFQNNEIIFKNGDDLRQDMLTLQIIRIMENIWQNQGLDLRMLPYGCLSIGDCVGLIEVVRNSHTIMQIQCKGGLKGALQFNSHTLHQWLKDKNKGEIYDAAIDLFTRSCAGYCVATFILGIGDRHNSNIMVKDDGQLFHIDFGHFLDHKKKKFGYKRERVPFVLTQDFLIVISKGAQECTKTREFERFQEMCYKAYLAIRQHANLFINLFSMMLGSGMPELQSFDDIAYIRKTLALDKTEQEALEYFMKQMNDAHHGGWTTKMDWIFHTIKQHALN

NCI-H1975 = test: Antitumor activity against human NCI-H1975 cells xenografted orthotopic mouse model assessed as survival at 25 mg/kg once weekly for 7 weeks relative to untreated control; format: functional
[7] = target: Glycogen synthase kinase-3 (Homo sapiens) (UniProt P49840+P49841); test: Inhibition of GSK3 kinase phosphorylation in human MDA-MB-361 cells by Western blotting; format: cell-based
Chain of Glycogen synthase kinase-3 (Homo sapiens) (P49840 whole entry, looked up): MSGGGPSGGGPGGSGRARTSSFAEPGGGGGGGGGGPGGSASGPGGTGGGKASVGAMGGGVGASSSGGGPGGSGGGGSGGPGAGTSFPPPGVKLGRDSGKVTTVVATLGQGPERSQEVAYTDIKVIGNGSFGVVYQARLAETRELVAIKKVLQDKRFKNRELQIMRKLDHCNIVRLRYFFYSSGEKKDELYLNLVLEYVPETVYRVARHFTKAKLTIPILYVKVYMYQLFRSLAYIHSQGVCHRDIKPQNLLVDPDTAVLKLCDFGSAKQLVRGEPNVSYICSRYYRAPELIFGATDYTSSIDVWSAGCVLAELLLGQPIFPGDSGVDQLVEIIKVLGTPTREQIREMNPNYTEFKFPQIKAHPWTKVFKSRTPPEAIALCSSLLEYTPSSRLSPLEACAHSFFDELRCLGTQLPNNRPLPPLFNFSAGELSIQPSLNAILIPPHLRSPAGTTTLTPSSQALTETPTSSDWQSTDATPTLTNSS
Chain of Glycogen synthase kinase-3 (Homo sapiens) (P49841 whole entry, looked up): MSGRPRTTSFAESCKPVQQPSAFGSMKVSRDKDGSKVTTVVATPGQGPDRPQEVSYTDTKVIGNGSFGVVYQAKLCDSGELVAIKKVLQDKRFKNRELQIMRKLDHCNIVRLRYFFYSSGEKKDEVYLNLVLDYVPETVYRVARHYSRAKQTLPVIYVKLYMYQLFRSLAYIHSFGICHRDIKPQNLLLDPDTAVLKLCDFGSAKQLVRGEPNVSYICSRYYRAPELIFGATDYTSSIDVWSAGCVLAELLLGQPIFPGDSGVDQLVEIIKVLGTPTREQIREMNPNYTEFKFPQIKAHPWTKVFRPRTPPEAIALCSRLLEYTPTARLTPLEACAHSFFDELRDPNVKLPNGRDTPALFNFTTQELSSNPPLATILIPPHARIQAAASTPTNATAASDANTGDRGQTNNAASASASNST

[8] = […] in mouse at 25 mg/kg, iv; format: ADME, organism-based; set-up: dose 25 mg/kg, route intravenous; conditions: in vivo
Mus musculus [9] = test: Antitumor activity against human MDA-MB-361 cells xenografted mouse model assessed as minimum effective dose; format: functional; conditions: read-out: MED
[10] = AUC (0 to infinity) in mouse at 25 mg/kg, iv; format: ADME, organism-based; set-up: dose 25 mg/kg, route intravenous, time infinity; conditions: plasma
[11] = Half life in mouse at 25 mg/kg, iv; format: ADME, organism-based; set-up: dose 25 mg/kg, route intravenous; conditions: in vivo
[12] = target: Proline-rich AKT1 substrate 1 (Homo sapiens) (UniProt Q96B36); test: Inhibition of PARS40 phosphorylation in human MDA-MB-361 cells by Western blotting; format: cell-based
[13] = Last AUC in mouse at 25 mg/kg, iv; format: ADME, organism-based; set-up: dose 25 mg/kg, route intravenous; conditions: in vivo
[14] = target: RAC-alpha serine/threonine-protein kinase (Homo sapiens) (UniProt P31749); test: Inhibition of Akt S473 phosphorylation in human MDA-MB-361 cells xenografted mouse model upto 36 hrs; format: cell-based
Chain of RAC-alpha serine/threonine-protein kinase (Homo sapiens) (P31749 whole entry): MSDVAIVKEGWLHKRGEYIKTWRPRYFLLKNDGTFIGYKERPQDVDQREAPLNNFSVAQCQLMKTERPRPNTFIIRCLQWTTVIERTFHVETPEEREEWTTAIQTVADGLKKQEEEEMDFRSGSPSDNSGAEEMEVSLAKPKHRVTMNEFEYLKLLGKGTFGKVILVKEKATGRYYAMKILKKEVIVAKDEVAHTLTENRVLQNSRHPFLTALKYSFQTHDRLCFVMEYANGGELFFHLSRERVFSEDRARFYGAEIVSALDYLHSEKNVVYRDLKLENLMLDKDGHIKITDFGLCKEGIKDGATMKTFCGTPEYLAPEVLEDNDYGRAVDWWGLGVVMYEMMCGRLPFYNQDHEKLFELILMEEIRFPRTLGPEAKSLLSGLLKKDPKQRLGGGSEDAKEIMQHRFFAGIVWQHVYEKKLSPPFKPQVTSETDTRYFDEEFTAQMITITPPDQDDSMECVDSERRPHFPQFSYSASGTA

Mus musculus [15] = test: Antitumor activity against human MDA-MB-361 cells xenografted mouse model assessed as maximum tolerated single dose; format: functional
[16] = Volume of distribution at steady state in mouse at 25 mg/kg, iv; format: ADME, organism-based; set-up: dose 25 mg/kg, route intravenous; conditions: in vivo, read-out: Vdss
[17] = target: RAC-alpha serine/threonine-protein kinase (Homo sapiens) (UniProt P31749); test: Inhibition of Akt T308 phosphorylation in human MDA-MB-361 cells xenografted mouse model upto 36 hrs; format: cell-based
MDA-MB-361 [18] = test: Antitumor activity against human MDA-MB-361 cells xenografted mouse model assessed as reduction in tumor volume at 20 mg/kg, iv on day 1, 5, 9; format: functional, organism-based; set-up: dose 20 mg/kg
MDA-MB-361 [19] = test: Induction of PARP cleavage in human MDA-MB-361 cells xenografted mouse model upto 18 hrs; format: functional, cell-based
[20] = Plasma clearance in mouse at 25 mg/kg, iv; format: ADME, organism-based; set-up: dose 25 mg/kg, route intravenous
[21] = target: T1, Nitric oxide synthase 3 (Homo sapiens) (UniProt P29474); test: Inhibition of eNOS phosphorylation in human MDA-MB-361 cells by Western blotting; format: cell-based
T1 sequence (whole entry): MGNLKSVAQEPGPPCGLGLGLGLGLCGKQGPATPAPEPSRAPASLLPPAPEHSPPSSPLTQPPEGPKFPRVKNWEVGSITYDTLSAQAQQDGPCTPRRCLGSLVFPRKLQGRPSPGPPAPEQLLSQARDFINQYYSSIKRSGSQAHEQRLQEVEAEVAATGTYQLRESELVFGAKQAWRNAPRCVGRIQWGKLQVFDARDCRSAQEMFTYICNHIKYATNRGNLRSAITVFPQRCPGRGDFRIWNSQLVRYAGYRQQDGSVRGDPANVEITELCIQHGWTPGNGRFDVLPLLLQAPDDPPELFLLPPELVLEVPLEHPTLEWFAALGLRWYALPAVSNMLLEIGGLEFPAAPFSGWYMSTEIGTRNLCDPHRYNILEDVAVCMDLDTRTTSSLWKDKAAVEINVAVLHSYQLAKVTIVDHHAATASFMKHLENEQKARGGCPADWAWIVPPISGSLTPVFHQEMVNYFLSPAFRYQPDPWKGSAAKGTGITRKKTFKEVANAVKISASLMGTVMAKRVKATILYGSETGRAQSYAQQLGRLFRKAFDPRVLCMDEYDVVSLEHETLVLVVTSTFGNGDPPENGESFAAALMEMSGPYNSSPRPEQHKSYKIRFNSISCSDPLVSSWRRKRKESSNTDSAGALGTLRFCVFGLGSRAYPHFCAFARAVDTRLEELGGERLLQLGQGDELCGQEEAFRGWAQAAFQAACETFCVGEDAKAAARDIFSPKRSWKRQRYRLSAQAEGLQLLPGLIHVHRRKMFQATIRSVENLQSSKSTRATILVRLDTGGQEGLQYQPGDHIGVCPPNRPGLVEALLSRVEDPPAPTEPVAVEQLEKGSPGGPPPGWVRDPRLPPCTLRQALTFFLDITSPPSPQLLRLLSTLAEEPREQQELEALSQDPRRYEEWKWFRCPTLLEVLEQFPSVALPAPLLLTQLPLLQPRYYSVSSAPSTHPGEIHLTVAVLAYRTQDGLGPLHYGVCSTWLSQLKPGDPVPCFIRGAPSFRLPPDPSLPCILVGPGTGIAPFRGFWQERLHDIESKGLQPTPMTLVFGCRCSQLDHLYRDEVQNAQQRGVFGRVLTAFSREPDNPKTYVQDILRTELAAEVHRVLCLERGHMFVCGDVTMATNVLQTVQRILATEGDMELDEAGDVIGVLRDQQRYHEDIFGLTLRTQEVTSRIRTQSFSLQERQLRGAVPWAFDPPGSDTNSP

Row | SMILES | solubility [1] [µg/mL] | IC50 (MDA-MB-361 [2]) [nM] | Papp [3] [×10⁻⁶ cm/s] | IC50 (cells) [nM] | IC50 [4] [nM] | IC50 [5] [nM] | IC50 [6] [nM] | other results
1 | COC(=O)c1ccc(NC(=O)Nc2ccc(-c3nc(N4CCOCC4)nc(N4CCOCC4)n3)cc2)cc1 | 1 (≈ 1.92 µM) | 115 | 0.6 | 45 |  |  |  | 
2 | O=C(Nc1ccc(C(=O)O)cc1)Nc1ccc(-c2nc(N3CCOCC3)nc(N3CCOCC3)n2)cc1 | 52 (≈ 103 µM) | 816 |  | 28 | 1.5 |  |  | 
3 | CN(C)CCNC(=O)c1ccc(NC(=O)Nc2ccc(-c3nc(N4CCOCC4)nc(N4CCOCC4)n3)cc2)cc1 | 7 (≈ 12.2 µM) | 3 | 0.1 | 11 | 0.5 | 8 | 0.4 | 
4 | CN(C)C1CCN(C(=O)c2ccc(NC(=O)Nc3ccc(-c4nc(N5CCOCC5)nc(N5CCOCC5)n4)cc3)cc2)CC1 [GEDATOLISIB] | 14 (≈ 22.7 µM) |  | 0.1 |  |  |  |  | Activity (NCI-H1975): 90%; Activity [7]: Active; MRT [8]: 16.7 h; minimal effective dose (Mus musculus [9]): 3 mg/kg; AUC(0-inf) [10]: 57900 ng·h/mL; half-life [11]: 864 min; Activity [12]: Active; AUC [13]: 42600 ng·h/mL; Activity [14]: Active; MTD (Mus musculus [15]): 30 mg/kg; Vd [16]: 7.2 L/kg; Activity [17]: Active; Activity (MDA-MB-361 [18]): Active; Activity (MDA-MB-361 [19]): Active; clearance [20]: 7 mL/min/kg; Activity [21]: Active
5 | CN1CCN(C(=O)c2ccc(NC(=O)Nc3ccc(-c4nc(N5CCOCC5)nc(N5CCOCC5)n4)cc3)cc2)CC1 |  | 10 |  | 13 | 1.4 | 9 | 0.5 | 
6 | O=C(Nc1ccc(-c2nc(N3CCOCC3)nc(N3CCOCC3)n2)cc1)Nc1ccc(F)cc1F | 1 (≈ 2.01 µM) | 794 |  | 5630 |  |  |  | 
7 | CN(C)CCN(C)C(=O)c1ccc(NC(=O)Nc2ccc(-c3nc(N4CCOCC4)nc(N4CCOCC4)n3)cc2)cc1.Cl | 9 | 9.8 | 0.03 | 18.3 | 0.6 | 9 |  | 
8 | CCNC(=O)Nc1ccc(-c2nc(N3CCOCC3)nc(N3CCOCC3)n2)cc1 | 1 (≈ 2.42 µM) |  | 0.7 |  | 10 |  |  | 
9 | O=C(Nc1ccc(-c2nc(N3CCOCC3)nc(N3CCOCC3)n2)cc1)Nc1cccs1 | 2 (≈ 4.28 µM) |  | 2.4 | 218 |  |  |  | 
10 | O=C(Nc1ccncc1)Nc1ccc(-c2nc(N3CCOCC3)nc(N3CCOCC3)n2)cc1 |  | 45 | 1.4 | 43 | 1.2 |  |  | 
11 | O=C(Nc1ccc(Cl)cc1)Nc1ccc(-c2nc(N3CCOCC3)nc(N3CCOCC3)n2)cc1 | 1 (≈ 2.02 µM) | 407 |  | 293 | 6.7 |  |  | 
12 | O=C(Nc1ccc(-c2nc(N3CCOCC3)nc(N3CCOCC3)n2)cc1)NN1CCCCC1 | 100 (≈ 213 µM) |  | 0.01 |  | 460 | 7470 | 1520 | 
13 | O=C(Nc1ccc(F)cc1)Nc1ccc(-c2nc(N3CCOCC3)nc(N3CCOCC3)n2)cc1 |  | 118 | 1 | 193 | 3.9 |  | 6.5 | 
14 | O=C(Nc1ccc(C(=O)N2CCC(N3CCCC3)CC2)cc1)Nc1ccc(-c2nc(N3CCOCC3)nc(N3CCOCC3)n2)cc1 | 33.5 (≈ 52.2 µM) | 3 |  | 8.3 | 0.8 | 10 | 0.7 | 
15 | O=C(Nc1ccc(C(=O)N2CCC(N3CCCCC3)CC2)cc1)Nc1ccc(-c2nc(N3CCOCC3)nc(N3CCOCC3)n2)cc1 | 31 (≈ 47.3 µM) | 3 |  | 7 | 0.7 |  |  | 

The next lines start with results.

Row | solubility [1] [µg/mL] | IC50 (MDA-MB-361 [2]) [nM] | Papp [3] [×10⁻⁶ cm/s] | IC50 (cells) [nM] | IC50 [4] [nM] | IC50 [5] [nM] | IC50 [6] [nM] | SMILES | other results
16 |  | 36 |  | 39 | 1.8 | 21.5 | 1.5 | O=C(Nc1ccc(CCO)cc1)Nc1ccc(-c2nc(N3CCOCC3)nc(N3CCOCC3)n2)cc1 | 
17 | 1 (≈ 2.16 µM) | 38 |  | 21 |  |  |  | O=C(Nc1ccc(-c2nc(N3CCOCC3)nc(N3CCOCC3)n2)cc1)Nc1ccnnc1 | 
18 |  | 200 | 5.6 | 364 |  |  |  | Cc1ccc(NC(=O)Nc2ccc(-c3nc(N4CCOCC4)nc(N4CCOCC4)n3)cc2)cc1 | 
19 |  | 30 | 0.2 | 30 |  |  |  | O=C(Nc1ccc(CO)cc1)Nc1ccc(-c2nc(N3CCOCC3)nc(N3CCOCC3)n2)cc1 | 
20 |  |  |  |  | 11.3 | 789 | 350 | CNC(=O)Nc1ccc(-c2nc(N3CCOCC3)nc(N3CCOCC3)n2)cc1 | 
21 |  | 56 | 0.2 | 107 | 3.9 |  |  | O=C(Nc1ccccc1)Nc1ccc(-c2nc(N3CCOCC3)nc(N3CCOCC3)n2)cc1 | 
22 |  |  | 0.5 | 92 | 1.2 |  | 1.7 | O=C(Nc1ccc(-c2nc(N3CCOCC3)nc(N3CCOCC3)n2)cc1)Nc1cccnc1 | 
23 | 1 (≈ 1.93 µM) |  |  | 24 |  |  |  | CNC(=O)c1ccc(NC(=O)Nc2ccc(-c3nc(N4CCOCC4)nc(N4CCOCC4)n3)cc2)cc1 | 
